Some results are limits rather than exact numbers.

Test [1] concerns P. falciparum stage V gametocytes (male gamete formation). In words: Exflagellation (male gamete formation) inhibition assay. Format: cell-based, Plasmodium falciparum. To be noted: for IC50: 48 hours exposure. The gist of the method:
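Mature stage V gametocytes (>95%) treated with compound for 48 h (2 μM single point, or fourfold serial dilutions), then exflagellation induced in ookinete medium with 100 μM XA and 20% human serum, compound still present. Exflagellation centres counted by video microscopy at room temperature between 15 and 22.5 min; IC50 from curves normalised to maximum and minimum inhibition.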

The test system of test [2] is P. falciparum mature stage V gametocytes. In words: Induction of gametogenesis. Format: cell-based, Plasmodium falciparum. To be noted: 1× IC50, without XA or temperature drop. The method, then: Mature (>90% stage V) gametocytes were exposed to short-term treatment with two of the 5-benzyl series compounds, SAL-0010042 and SAL-0010003. In the absence of any other stressors (drop in temperature, pH increase, and XA), mature gametocytes were treated at 1× IC50 of either compound, and samples were taken at 15, 30, and 60 min. Giemsa-stained slides were prepared at these time points, and the parasite populations were evaluated morphologically using light microscopy. Male and female gametes were identified or distinguished on the basis of rounding up, shape, and size. Statistical evaluation was performed with paired, two-tailed t test (GraphPad Prism 6.0).

Test [3] relates to P. falciparum stage V gametocytes (female gamete formation). Put plainly: Female gamete formation inhibition assay. The test is classed as cell-based, Plasmodium falciparum. To be noted: for IC50: 48 hours exposure. The gist of the method:
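P. falciparum gametocytes (>95% stage V) were treated for 48 h with compound at 2 μM or in a fourfold dilution series. Female gamete formation was then triggered by a temperature drop plus 100 μM xanthurenic acid. Gametes were detected with FITC-anti-Pfs25, 30 images per sample were counted manually, and IC50 was fitted after normalisation to maximum and minimum inhibition.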

In test [4] the test system is P. falciparum NF54 gametocytes fed to Anopheles stephensi. Put plainly: Initial SMFA and sporozoite production. Format: in vivo, Plasmodium falciparum. To be noted: for Oocyst and sporozoite formation: 0.5 and 1 μM. How it is done: P. falciparum NF54 gametocytes were prepared for blood-feeding to mosquitoes according to the method described ([57]), with some slight modifications. Briefly, gametocyte cultures seeded at 2% overall parasitemia and 4% hematocrit were maintained at 37°C for 16 days with daily medium changes. Gametocyte functional viability was assessed by an exflagellation assay at day 14 after induction, observed by light microscopy. Anopheles stephensi (SD500 strain) were reared as described ([58]). Gametocyte aliquots from a single NF54 culture, produced as above, were incubated either with SAL-0010003 or SAL-0010042 in two separate experiments at 100 nM, 500 nM or 1 μM, 1 μM methylene blue (full-block control), or culture medium only (no-drug control) from day 14 to day 16 when SMFA was carried out. Fresh drug-containing medium was provided each day during this exposure. Pots containing 70 to 80 female A. stephensi mosquitoes, aged 2 to 5 days old, were allowed to feed on 500 μl of the respective culture plus drug mixture, presented to each pot in a preheated three-dimensional printed water channel membrane feeder ([59]), until fully fed. Mosquitoes were placed in an incubator at standard conditions. Seven to 8 days after the feed, 10 to 15 mosquitoes were removed and kept under standard conditions for salivary gland dissection on day 14 after feeding. The remaining mosquito midguts were dissected on day […] or day 7, respectively, after the feed in 0.25% mercurochrome stain to determine oocyst counts by light microscopy.

Test [5] relates to P. falciparum stage IV/V gametocytes. Put plainly: LDH-based gametocyte viability assay. Format: cell-based, Plasmodium falciparum. To be noted: stage IV to V gametocytes. Summed up:
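Late gametocytes (>95% stage IV/V) at 2% gametocytemia and 1% hematocrit, exposed to compound in triplicate for 72 h at 37°C, then 75% medium change to drug-free medium and another 72 h. Viability from pLDH activity with Malstat reagent (pH 9) plus PES/NBT, absorbance at 620 nm.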

[6] abbreviates: Plasmodium falciparum, 2 μM, 48 hours.

For orientation: inhibition means the drop in the measured response relative to a control, in per cent. The low end stands for little suppression, the high end for strong suppression. In general, IC50 refers to the midpoint of a concentration-inhibition curve. The low end stands for higher potency, the high end for lower potency. As to `CC(C)c1n[nH]c2c(=O)[nH]c(Cc3ccc(F)cc3F)nc12` [SAL-0010003], the inhibition at 2 µM in test [1] (setting [6]) amounted to 88.4 ± 17%; in test [3] (setting [6]), 71.3 ± 1.5%. Besides, the IC50 in test [1] (Plasmodium falciparum) was determined as 404 nM; in test [3] (Plasmodium falciparum) it was 273 nM. The “Time to stimulate gametogenesis of mature stage V gametocytes” value in test [2] is given as at most 15 min. Besides, the “Infection prevalence and intensity” value in test [4] (100 nM) is reported as “reduced”. In addition, the “Oocyst and sporozoite formation” value in test [4] is given as “Few or no oocysts or sporozoites”. In addition, the “% inhibition gametocyte viability at 15 μM” value in test [5] turned out to be 65.4 ± 20.3%.

For the compound `CC(C)c1[nH]nc2c(=O)[nH]c(Cc3ccccc3F)nc12` [SAL-0010042], in test [1] (2 μM, 48 hours), the “% inhibition of exflagellation at 2 μM” value was 95.4 ± 18.0%. The concentration for half-maximal inhibition (IC50) in test [1] was determined as 386 nM; in test [3], 238 nM. In addition, the “Time to stimulate gametogenesis of mature stage V gametocytes” value in test [2] is listed as at most 15 min. Besides, the “% inhibition of female gamete formation at 2 μM” value in test [3] (2 μM, 48 hours) came to 97.7 ± 0.4%. Also, in test [4], the “Oocyst and sporozoite formation” value is on record as “Few or no oocysts or sporozoites”. Besides, the “% inhibition gametocyte viability at 15 μM” value in test [5] is recorded as 99.6 ± 1.3%.

The values above are taken from paper PMC11623267, “Inhibitors of malaria parasite cyclic nucleotide phosphodiesterases block asexual blood-stage development and mosquito transmission” (Science Advances, 2024).
